Experimental data published in patent US6218398A, “Nocathiacin antibiotics” (Bristol-Myers Squibb Company, priority 1999, dated 2001).
Values after ≈ are worked out from the molar mass of the structure shown.

Legend:
[1] = tested on: Streptococcus pneumoniae A9585; experiment: MIC by conventional serial broth dilution assay; type: cell-based
[2] = tested on: Streptococcus pneumoniae/penicillin intermediate A27881; experiment: MIC by conventional serial broth dilution assay; type: cell-based
[3] = tested on: Streptococcus pneumoniae/penicillin resistant A28272; experiment: MIC by conventional serial broth dilution assay; type: cell-based
[4] = tested on: Streptococcus pyogenes A9604; experiment: MIC by conventional serial broth dilution assay; type: cell-based
[5] = tested on: Enterococcus faecalis A20688; experiment: MIC by conventional serial broth dilution assay; type: cell-based
[6] = tested on: Enterococcus faecalis A27519; experiment: MIC by conventional serial broth dilution assay; type: cell-based
[7] = tested on: Enterococcus faecium A24885; experiment: MIC by conventional serial broth dilution assay; type: cell-based
[8] = tested on: Enterococcus faecium/thiostrepton resistant (10 ug/ml) SC15829; experiment: MIC by conventional serial broth dilution assay; type: cell-based
[9] = tested on: Enterococcus avium A27456; experiment: MIC by conventional serial broth dilution assay; type: cell-based
[10] = tested on: Staphylococcus aureus A9537; experiment: MIC by conventional serial broth dilution assay; type: cell-based
[11] = tested on: Staphylococcus aureus/β-lactamase positive A15090; experiment: MIC by conventional serial broth dilution assay; type: cell-based
[12] = tested on: Staphylococcus aureus/QC/ATCC#29213 A24407; experiment: MIC by conventional serial broth dilution assay; type: cell-based; conditions: ATCC29213
[13] = tested on: Staphylococcus aureus/hetero methicillin resistant A27218; experiment: MIC by conventional serial broth dilution assay; type: cell-based
[14] = tested on: Staphylococcus aureus/homo methicillin resistant A27223; experiment: MIC by conventional serial broth dilution assay; type: cell-based
Micrococcus luteus A9852 = experiment: MIC by conventional serial broth dilution assay; type: cell-based
Bacillus subtilis A9506A = experiment: MIC by conventional serial broth dilution assay; type: cell-based
[15] = tested on: Staphylococcus epidermidis A24548; experiment: MIC by conventional serial broth dilution assay; type: cell-based
[16] = tested on: Staphylococcus haemolyticus A27298; experiment: MIC by conventional serial broth dilution assay; type: cell-based
Escherichia coli A15119 = experiment: MIC by conventional serial broth dilution assay; type: cell-based
Escherichia coli A22292 = experiment: MIC by conventional serial broth dilution assay; type: cell-based
[17] = tested on: Escherichia coli/AcrA::Kan A28901; experiment: MIC by conventional serial broth dilution assay; type: cell-based
[18] = tested on: Salmonella enteritidis A9531; experiment: MIC by conventional serial broth dilution assay; type: cell-based; conditions: Salmonella enterica
[19] = tested on: Moraxella catarrhalis/β-lactamase positive A22344; experiment: MIC by conventional serial broth dilution assay; type: cell-based
[20] = tested on: Moraxella catarrhalis/β-lactamase positive A25409; experiment: MIC by conventional serial broth dilution assay; type: cell-based
[21] = tested on: Haemophilus influenzae/β-lactamase negative A20191; experiment: MIC by conventional serial broth dilution assay; type: cell-based
[22] = tested on: Haemophilus influenzae/β-lactamase negative A20183; experiment: MIC by conventional serial broth dilution assay; type: cell-based
[23] = tested on: Haemophilus influenzae/β-lactamase positive A21515; experiment: MIC by conventional serial broth dilution assay; type: cell-based
Salmonella/WT A27207 = experiment: MIC by conventional serial broth dilution assay; type: cell-based
Salmonella/RE A27208 = experiment: MIC by conventional serial broth dilution assay; type: cell-based
[24] = tested on: Staphylococcus aureus A15090; experiment: systemic Staph. aureus infection model in mice; type: in vivo, female ICR mice infected with Staphylococcus aureus; conditions: subcutaneous
Description: Nocathiacin I was evaluated for antibiotic activity in vivo, in a systemic infection model using female ICR mice. The animals were infected IP with 6.5×10^6 CFU of an overnight culture of Staphylococcus aureus A15090 suspended in 7% mucin. Nocathiacin I was dissolved in a test formulation consisting of 10% DMSO, 5% Tween 80 and 85% water. The solution was administered subcutaneously at 100 mg/kg total dose (2×50 mg/kg doses at 1 and 4 hours post-infection). […] The PD50 of nocathiacin I was determined to be <6.25 mg/kg.

Gram-positive bacteria = experiment: in vitro activity against Gram-positive bacteria; type: cell-based; conditions: e.g. multiple drug resistant Enterococcus faecium

C=C(NC(=O)c1csc(-c2nc3c(cc2O)-c2nc(cs2)C(=O)NC(C(C)O)C(=O)NC(=C(C)OC)c2nc(cs2)C(=O)NC2c4nc(cs4)C(=O)NC(COC(=O)c4c5c6c(cccc6n4O)COC(=O)C(OC4CC(C)(O)C(N(C)C)C(C)O4)C2OC5)c2nc-3cs2)n1)C(N)=O (stereo not shown) [Nocathiacin I]
MIC [1]: 1 ng/mL (≈ 0.000696 µM)
MIC [2]: 1 ng/mL (≈ 0.000696 µM)
MIC [3]: 1 ng/mL (≈ 0.000696 µM)
MIC [4]: 1 ng/mL (≈ 0.000696 µM)
MIC ([5]; A20688): 0.03 µg/mL (≈ 0.0209 µM)
MIC ([5]; A20688, + 50% calf serum): 0.25 µg/mL
MIC [6]: 0.03 µg/mL (≈ 0.0209 µM)
MIC [7]: 0.015 µg/mL (≈ 0.0104 µM)
MIC [8]: 0.125 µg/mL (≈ 0.087 µM)
MIC [9]: 0.015 µg/mL (≈ 0.0104 µM)
MIC [10]: 1 ng/mL (≈ 0.000696 µM)
MIC ([11]; + 50% calf serum): 0.015 µg/mL
MIC ([11]; β-lactamase positive): 0.007 µg/mL (≈ 0.00487 µM)
MIC [12]: 7 ng/mL (≈ 0.00487 µM)
MIC ([13]; + 50% calf serum): 7 ng/mL
MIC ([13]; hetero methicillin resistant): 3 ng/mL (≈ 0.00209 µM)
MIC ([14]; + 50% calf serum): 1 ng/mL
MIC ([14]; homo methicillin resistant): 3 ng/mL (≈ 0.00209 µM)
MIC (Micrococcus luteus A9852): 3 ng/mL (≈ 0.00209 µM)
MIC (Bacillus subtilis A9506A): 1 ng/mL (≈ 0.000696 µM)
MIC [15]: 3 ng/mL (≈ 0.00209 µM)
MIC [16]: 0.03 µg/mL (≈ 0.0209 µM)
MIC (Escherichia coli A15119): > 128 µg/mL
MIC (Escherichia coli A22292): > 128 µg/mL
MIC [17]: > 128 µg/mL
MIC [18]: > 128 µg/mL
MIC [19]: 0.06 µg/mL (≈ 0.0417 µM)
MIC [20]: 0.06 µg/mL (≈ 0.0417 µM)
MIC [21]: > 128 µg/mL
MIC [22]: > 128 µg/mL
MIC [23]: > 128 µg/mL
MIC (Salmonella/WT A27207): > 128 µg/mL
MIC (Salmonella/RE A27208): > 128 µg/mL
ED50 ([24]; Staphylococcus aureus, A15090, sc, systemic infection model, female ICR mice, read-out: PD50): < 6.25 mg/kg
signs of toxicity ([24]; 100 mg/kg total dose (2×50 mg/kg at 1 and 4 hours post-infection)): no signs of toxicity
animals survived the duration of the experiment ([24]; 100 mg/kg total dose (2×50 mg/kg at 1 and 4 hours post-infection), IP infection 6.5×10^6 CFU): Nine out of nine
inhibitory activity against Gram-positive bacteria (Gram-positive bacteria): inhibitory activity at the nanomolar level
